According to publication PMC8657855 (International Journal of Molecular Sciences, 2021):
Values after ≈ are worked out from the molar mass of the structure shown.

Experiments:
Assay in all cases: microbe, parasite or virus in culture
[1] = system: Xanthomonas oryzae pv. oryzicola Xoc; settings: read-out: EC50 (mg/L) Xoc
[2] = system: Xanthomonas oryzae pv. oryzicola Xoc
[3] = system: Xanthomonas oryzae pv. oryzae Xoo
[4] = system: Xanthomonas oryzae pv. oryzae Xoo; settings: read-out: EC50 (mg/L) Xoo
[5] = read-out: Inhibition (%) 10 (mg/L)
[6] = read-out: Inhibition (%) 50 (mg/L)

Question: Which EC50 [1] does the source give for `CCS(=O)(=O)c1nnc(CNC(=O)C=Cc2cccs2)o1` [compound 2, N-((5-(ethylsulfonyl)-1,3,4-oxadiazol-2-yl)methyl)-3-(thiophen-2-yl)acrylamide] here?
Answer: 3.41 ± 0.05 mg/L (≈ 10.4 µM)

Question: And the inhibition at 10 µg/mL [2, 5]?
Answer: 96.9 ± 0.3%

Question: What about the inhibition at 50 µg/mL [2, 6] of the same molecule?
Answer: 97.5 ± 0.8%

Question: What about the inhibition at 10 µg/mL [3, 5] of the same molecule?
Answer: 85 ± 4.1%

Question: What about the inhibition at 50 µg/mL [3, 6] of the same molecule?
Answer: 90.6 ± 8.6%

Question: And the EC50 [4]?
Answer: 0.72 ± 0.07 mg/L (≈ 2.2 µM)
